Source: patent publication US12410124B2 (priority 2019, dated 2025)
Like-named read-outs stand apart in the source and are kept apart here.

Tests used:
midbrain TH = test: Midbrain TH expression in MPTP Parkinson's disease model mouse (western-blotting); assay type: in vivo; settings: midbrain total protein, GAPDH internal reference, gavage 21 days after MPTP modeling
Experimental: (§1) Neurotoxins can be used to establish PD animal models. Currently, 1-methyl-4-phenyl-1,2,3,6-tetrahydropyridine (MPTP) is the sole synthetic toxin which is recognized to induce PD symptoms in human and non-human primates and in mice. Using MPTP subacute modeling method, C57BL/6J male mice were intraperitoneally injected with MPTP 30 mg/kg, once a day for 5 consecutive days. The experiment animals were divided into blank control group, MPTP model group, and compound treatment group. For the […] compound treatment group, the compound was administrated by gavage for 21 consecutive days after the completion of modeling; for the MPTP model group, the normal saline was administrated by gavage for 21 consecutive days after the completion of modeling; and for the blank control group, the normal saline was first intraperitoneally injected for 5 days, and then administrated by gavage for 21 days.
The main cause of PD lies in the pathological changes in the substantia nigra-striatum projection system of the brain and the progressive degeneration and loss of dopaminergic neurons. Tyrosine hydroxylase (TH) is the first enzyme in the biosynthesis of catecholamine neurotransmitters, as well as the first rate-limiting enzyme in the dopamine synthesis. It plays an important role in the synthesis and metabolism of the neurotransmitter DA. The TH in PD animal models and patients has a wide range of abnormal changes, from the gene expression to the enzyme protein content and enzyme activity. The detection of the TH expression in the midbrain and substantia nigra of PD model mice can be used to evaluate the neuroprotective activity of the compound.
Half of experiment mice in each group were taken to extract the total midbrain protein, and the change in the midbrain TH was determined by western-blotting using GAPDH as the internal reference. The experiment included blank control group, MPTP model group, positive control group (caffeic acid phenethyl ester, CAPE), prototype control group (styryl sulfone compounds 3B, 3C, 3D, and 3G, whose structures are shown as above), and target compound group.

hippocampus GFAP = test: Number of hippocampus astrocytes with GFAP positive expression in MPTP Parkinson's disease model mouse (immunohistochemistry); assay type: in vivo; settings: for Positive cell number (astrocytes with GFAP positive expression): hippocampus, MPTP Parkinson's disease model mouse, immunohistochemistry
Experimental: as §1
(§2) Neuron-glial cell network homeostasis disorder is an important factor for the selective and progressive death of substantia nigra dopaminergic neurons in PD. In the neurotoxic effect of MPTP, the excessive activations of microglial cells and astrocytes produce a variety of inflammatory cytokines and reactive oxygen species (ROS). These inflammatory factors and ROS amplify their respective toxicities and mediate malignant feedback loop, causing a cascade inflammation response and aggravating the pathological process of PD. CD11b and GFAP are the marker proteins for activations of microglial cells and astrocytes, respectively. Therefore, the effect of the target compounds on the activations of the microglial cells and astrocytes in the substantia nigra, hippocampus, and midbrain areas of MPTP-induced PD mice can be investigated, to explore the mechanism of the anti-PD effect of the target compounds by inhibiting the neuroinflammation.
Half of experiment mice in each group were taken to separate the midbrain after perfusion and fixation. The tissue was trimmed, and the hippocampus area was taken to prepare paraffin sections. The GFAP immunohistochemical staining was performed for the statistics of the change in the number of astrocytes with GFAP positive expression. The experiment included blank control group, MPTP model group, positive control group (caffeic acid phenethyl ester, CAPE), prototype control group (styryl sulfone compounds 3B, 3C, 3D, and 3G, whose structures are shown as above), and target compound group.

primary glial cells = test: Inhibition of the NO release of primary glial cells induced by LPS; assay type: cell-based, rat; settings: for inhibition at 5 µM / inhibition at 10 µM / inhibition at 20 µM / inhibition at 2 µM: Rattus norvegicus, Glial cell, read-out: NO inhibition (%)
Text: Lipopolysaccharide (LPS) is a main component of the cell wall of Gram-negative bacteria. It is a potent inflammatory factor that can directly activate gliocytes, and the activated gliocytes secrete a large amount of inflammation mediators such as tumor necrosis factor, interleukin, and nitric oxide, thus causing inflammatory reactions and oxidative stress reactions and eventually leading to neuronal denaturation and death. In recent years, the targeted injection of LPS into rat substantia nigra or striatum to induce neuroinflammation can successfully establish PD models, which can simulate most of the clinical manifestations and pathological features of PD, and are used for the study on the neuroinflammation mechanism associated with PD. LPS-induced primary glial cell PD inflammation model is suitable for the preliminary anti-neuroinflammation screening for neuroprotective agents. LPS is used to directly activate primary glial cells to simulate the pathogenesis mechanism of neuroinflammation, and the inhibitory activity of the target compounds on the inflammatory response of primary glial cells can be investigated.
The materials were taken from the brain tissue of fetal rat, for primary glial cell culture. At 7 to 10 days of the culture, LPS was added for the activation of nitric oxide (NO) release in glial cells. When a target compound was added, the reduction value for NO content in the cell culture medium was measured, to evaluate the anti-neuroinflammation activity of the compound. The experiment included blank control group, LPS model group, positive control group (caffeic acid phenethyl ester, CAPE), prototype control group (styryl sulfone compounds 3B, 3C, 3D, and 3G, the structures of which compounds are shown as above), and target compound group.

HO-1 = test: Midbrain HO-1 expression in MPTP Parkinson's disease model mouse (western blot); assay type: in vivo; settings: for Expression (HO-1/GAPDH): midbrain, MPTP Parkinson's disease model mouse, western blot
Experimental: as §1
Oxidative stress is an important pathogenic mechanism of PD. Dopaminergic neurons are more sensitive to oxidative stress and are more susceptible to oxidative stress damage. Heme oxygenase (HO-1), a phase II enzyme, is also a well-known antioxidase. It plays an important protective role by catalyzing the conversion of free radicals into non-toxic products and increasing their water solubility to facilitate the elimination of free radicals, and maintain the redox balance in the body. It plays an important role in the process of protecting cells against oxidative stress damage. The activation of p38 protein phosphorylation has a negative regulatory effect on phase II enzymes. […] Using HO-1 as an indicator, the inhibitory effect of the target compounds on MPTP-induced oxidative stress damage in PD mice can be investigated.
HO-1 is expressed in astrocytes, microglial cells, and neurons. The total proteins of the midbrain tissue of mice in each experiment group were extracted, to determine the expression of phase II enzyme HO-1 in the midbrain of mice by western blot using GAPDH as the internal reference. The experiment included blank control group, MPTP model group, positive control group (caffeic acid phenethyl ester, CAPE), prototype control group (styryl sulfone compounds 3B, 3C, 3D, and 3G, whose structures are shown as above), and target compound group.

midbrain CD11b = test: Midbrain CD11b protein expression in MPTP Parkinson's disease model mouse (western-blotting); assay type: in vivo; settings: for Expression (CD11b/GAPDH): midbrain, MPTP Parkinson's disease model mouse, western-blotting
Experimental: as §1, §2
[…] The experiment included blank control group, MPTP model group, positive control group (caffeic acid phenethyl ester, CAPE), prototype control group (styryl sulfone compounds 3B, 3C, 3D), and 3G, whose structures are shown as above), and target compound group.

| Compound | Expression (TH/GAPDH) (midbrain TH) | Positive cell number (astrocytes with GFAP positive expression) (hippocampus GFAP) | inhibition at 5 µM (primary glial cells; 5 μM) | inhibition at 10 µM (primary glial cells; 10 μM) | inhibition at 20 µM (primary glial cells; 20 μM) | Expression (HO-1/GAPDH) (HO-1) | Expression (CD11b/GAPDH) (midbrain CD11b) | inhibition at 2 µM (primary glial cells) | inhibition at 5 µM (primary glial cells) | inhibition at 10 µM (primary glial cells) | inhibition at 20 µM (primary glial cells) | number of hippocampus astrocytes with GFAP positive expression compared with the styryl sulfone prototype compounds (hippocampus GFAP) | NO inhibitory rate compared with the styryl sulfone prototype compounds (primary glial cells) | midbrain HO-1 expression compared with the styryl sulfone prototype compounds (HO-1) | midbrain CD11b protein expression compared with the styryl sulfone prototype compounds (midbrain CD11b) |
| --- | --- | --- | --- | --- | --- | --- | --- | --- | --- | --- | --- | --- | --- | --- | --- |
| CC(Br)C(Br)COc1cc(/C=C/S(=O)(=O)CCc2ccc(OCC(F)(F)F)cc2)ccc1OC(=O)Nc1ccsc1 (centres unmarked) [Compound K1-3, (E)-2-(2,3-dibromobutoxy)-4-{2-[4-(2,2,2-trifluoroethoxy)phenylethylsulfonyl]ethenyl}phenyl-N-(thien-3-yl)carbamate] | 0.91 ± 0.04 | 65 ± 5 | 33.3 ± 6.71% | 54.2 ± 4.06% | 81.4 ± 4.29% | 0.83 ± 0.08 | 1.01 ± 0.08 | – | – | – | – | – | – | – | – |
| C=CCOc1ccc(C/C=C/S(=O)(=O)/C=C/c2ccc(OC(C)=O)c(OC(=O)N(CC=C)CC=C)c2)cc1 [Compound K1-4, 4-{(E)-2-[(E)-3-(4-allyloxyphenyl)prop-1-en-1-yl]sulfonylethenyl}-2-(N,N-diallylcarbamoyloxy)phenyl acetate] | 0.74 ± 0.08 | 71 ± 4 | 53.5 ± 5.52% | 77.4 ± 5.09% | – | 1.02 ± 0.09 | 1.09 ± 0.10 | 30.2 ± 4.01% | – | – | – | – | – | – | – |
| CC(=O)Oc1ccc(/C=C/S(=O)(=O)Cc2c(F)c(F)c(F)c(F)c2F)cc1OC(=O)NC(=O)c1ccc([N+](=O)[O-])c(C)c1 [Compound D5-4, (E)-2-[N-(3-methyl-4-nitrobenzoyl)carbamoyloxy]-4-{2-[(perfluorophenyl)mesyl]ethenyl}phenyl acetate] | 1.19 ± 0.05 | 59 ± 3 | – | 80.7 ± 4.06% | – | 0.93 ± 0.10 | 1.11 ± 0.10 | 24.3 ± 2.82% | – | – | – | – | – | – | – |
| O=C(/C=C/c1ccc(O)c(O)c1)OCCc1ccccc1 [Positive control group, caffeic acid phenethyl ester, reference compound] | 0.85 ± 0.04 | 86 ± 2 | 45.2 ± 3.85% | 77.1 ± 4.37% | – | 0.52 ± 0.07 | 1.28 ± 0.10 | 31.5 ± 5.43% | – | – | – | – | – | – | – |
| CC(C)(C)c1ccc(CS(=O)(=O)/C=C/c2ccc(O)c(O)c2)cc1 [Compound 3G, (E)-4-{2-[(4-t-butylphenyl)mesyl]ethenyl}benzene-1,2-diol, reference compound] | 0.45 ± 0.05 | 130 ± 6 | 41.2 ± 3.01% | 59.6 ± 2.44% | 85.8 ± 3.88% | 0.51 ± 0.07 | 0.67 ± 0.12 | – | – | – | – | – | – | – | – |
| Cc1ccc(S(=O)(=O)Oc2ccc(CS(=O)(=O)/C=C/c3ccc(OS(=O)(=O)c4ccc(C)cc4)c(OC(=O)N(C)S(=O)(=O)c4ccc(C)cc4)c3)cc2)cc1 [Compound S6-6, (E)-2-(N-methyl-N-p-tosylcarbamoyloxy)-4-{2-[(4-p-tosyloxyphenyl)mesyl]ethenyl}phenyl p-toluenesulfonate] | 1.07 ± 0.06 | 58 ± 2 | – | – | – | 1.08 ± 0.11 | 0.62 ± 0.04 | – | 30.2 ± 2.97% | 59.2 ± 3.49% | 85.1 ± 4.41% | – | – | – | – |
| CCN(CC)C(=O)Oc1ccc(/C=C/S(=O)(=O)Cc2ccc(C(F)(F)F)cc2)cc1OC(=O)N(CC)CC [Compound B1-1, (E)-4-{2-[(4-trifluoromethylphenyl)mesyl]ethenyl}-1,2-phenylenebis(diethylcarbamate)] | 0.92 ± 0.02 | 64 ± 4 | 21.6 ± 2.18% | 42.8 ± 3.56% | 97.7 ± 2.04% | 0.90 ± 0.10 | 0.41 ± 0.05 | – | – | – | – | significantly lower | equivalent or higher inhibitory rate | significantly higher | equivalent or lower |
| CC[Si](CC)(Oc1ccc(C(Cl)S(=O)(=O)/C=C/c2ccc(OC(=O)N3CC(C)OC(C)C3)c(OC(=O)c3cccc(Cl)c3OC)c2)cc1)c1ccccc1 (centres unmarked) [Compound R1-5, (E)-4-{2-[4-(diethylphenylsiloxy)phenylchloromesyl]ethenyl}-2-(3-chloro-2-methoxybenzoyloxy)phenyl-2,6-dimethylmorpholine-4-carboxylate] | 0.94 ± 0.03 | 80 ± 2 | 23.8 ± 4.32% | 48.5 ± 3.68% | 73.6 ± 3.92% | 0.87 ± 0.06 | 1.25 ± 0.08 | – | – | – | – | – | – | – | – |
